Two compounds from US7981875B2, “2″ oxo-voruscharin and derivatives thereof” (priority 2002, dated 2011) can be followed below.

The test system of one series is Hs683. As to the kind of experiment: MTT test, overall cell growth. It counts as cell-based, human. The protocol:
(§1) In order to characterize the in vitro activities of the compounds according to the invention, MTT tests were carried out. The MTT test, which is a well-known test in the art, is an indirect technique that rapidly measures, i.e. within 5 days, the effect of a given product on the overall cell growth. This test measures the number of metabolically active living cells that are able to transform the MTT product (3-(4,5-dimethylthiazol-2-yl)-2,5 diphenyl tetrazolium bromide), having a yellowish color, to the blue product formazan dye by mitochondrial reduction. The amount of formazan obtained at the end of the experiment is measured with a spectrophotometer and is directly proportional to the number of living cells. Determination of the optical density enables a quantitative measurement of the effect of the investigated compounds as compared to the control condition (untreated cells) and to compare it to other reference compound. In the following examples different compounds according to the invention were tested and compared to the reference compound being uscharin.
(§2) Six human cancer cell lines, described in Table C, were tested in the presence of compounds according to the invention. These cell lines covered four histological cancer types, being Glioma, colon, lung and bladder cancer. The cells were allowed to grow in 96-well micro wells with a flat bottom with an amount of 100 μl of cell suspension per well in reason to 4000 cells/well depending on cell type. Each cell line was seeded in its own cell culture medium (Table C).
(§3) After a 24-hour period of incubation at 37° C., the culture medium is replaced by 100 μl of fresh medium in which the compound to be tested has been dissolved at different required concentrations. Different compounds were tested at 10^−9 M, 5×10^−9 M, 10^−8 M, 5×10^−8 M, 10^−7 M, 5×10^−7 M, 10^−6 M, 5×10^−6 M et 10^−5 M. Each experimental condition is carried out in hexaplicate. The compounds tested are 2″ oxo-voruscharin, and compounds B, C, D, E, H and I represented in Table B above.
(§4) After 72 hours of incubation at 37° C. with the compound (experimental conditions) or without the compound (control condition), the medium was replaced by 100 μl MTT at the concentration of 1 mg/ml dissolved in RPMI. The micro wells were subsequently incubated during 3 hours at 37° C. and centrifuged at 400 g during 10 minutes. The MTT was removed and formazan crystals formed, were dissolved in 100 μl DMSO. The micro wells were shaken for 5 minutes and read on a spectrophotometer at the wavelengths of 570 nm corresponding to the maximum formazan absorbance wavelength, and of 630 nm, which is the background noise wavelength.
(§5) For each experimental condition, the mean OD associated with the SEM (standard error of the mean) for each condition (6 wells) was calculated. The percentage of remaining living cells in comparison with the control was calculated. Results of these experiments are represented in FIGS. 2 to 8.
In general terms: Formazan colour is commonly taken as a measure of viable cells.

The test system of the next series is J82. As to the kind of experiment: MTT test, overall cell growth. It counts as cell-based, human. The protocol:
as §1, §2, §3, §4, §5

A further series concerns U-373 MG. As to the kind of experiment: MTT test, overall cell growth. Type of series: cell-based, human. To be noted: U-373, MTT, 72 hours of incubation. The method, then:
as §1, §2, §3, §4, §5

In another series the test system is HCT-15. As to the kind of experiment: MTT test, overall cell growth. Type of series: cell-based, human. The protocol:
as §1, §2, §3, §4, §5

A further series relates to A549. As to the kind of experiment: MTT test, overall cell growth. It counts as cell-based, human. To be noted: 72 hours of incubation. The method, then: as §1, §2, §3, §4, §5
A further series deals with LoVo. Put plainly: MTT test, overall cell growth. It counts as cell-based, human. Particulars: 72 hours of incubation. The protocol:
as §1, §2, §3, §4, §5

A short description of series [1]: Maximum Tolerated Dose in healthy mice. Type of series: in vivo. Particulars: single administration in mice, healthy animals, 14 days post-injection. The protocol:
The Maximum Tolerated Dose (MTD) of a given drug is defined as the maximum amount of a drug which can be administered acutely (i.e. in one i.p., i.v., s.c. or per os single dose) to healthy animals, i.e. animals not grafted with tumors. The survival times and weights of the animals are recorded up to 14 days post-injection. Five different doses of each drug are used for the determination of the MTD index. When the MTD index is higher than 160 mg/kg (i.p. administration) the drug is usually considered to be non-toxic, and the highest dose administered to tumor-bearing mice is MTD/2=80 mg/kg. Each experimental group was composed of 3 mice for the determination of the MTD index.

Another series has as its system Capan-2 (Pancreas). Put plainly: MTT test, overall cell growth. It counts as cell-based, human. To be noted: Capan-2 cell line. The method, then:
as §1, with “In the following examples different compounds according to the invention were tested and compared to the reference compound being uscharin.” left out
(§6) After 72 hours of incubation at 37° C. with the compound (experimental conditions) or without the compound (control condition), the medium was replaced by 100 μl MTT at the concentration of 1 mg/ml dissolved in RPMI. […] The micro wells were shaken for 5 minutes and read on a spectrophotometer at the wavelengths of 570 nm corresponding to the maximum formazan absorbance wavelength, and of 630 nm, which is the background noise wavelength. […]

The subject of another series is PC-3 (Prostate). As to the kind of experiment: MTT test, overall cell growth. Type of series: cell-based, human. To be noted: PC-3 cell line. The protocol: as §1, with “In the following examples different compounds according to the invention were tested and compared to the reference compound being uscharin.” left out
as §6

The test system of series [2] is Capan-2 orthotopic xenograft. Put plainly: Orthotopic pancreatic cancer model. Type of series: in vivo, nude mice. The method, then:
(§7) Three types of results were obtained with in vivo anti-tumor pharmacology: 1) the cumulative toxicity of chemotherapeutic administrations through recording the weights of the tumor-bearing mice during treatment, 2) the actual anti-tumor effect exerted at tumor growth level. If the tumor models are grafted subcutaneously (s.c.), tumor size is measured three times a week by means of a caliper and expressed as an area (mm^2) by multiplying together the two largest perpendicular diameters, and 3) the gain in survival for the animals treated, which is evaluated by means of the T/C index. This index is the ratio between the median survival time of the group of treated animals (T) and that of the control group. The drug is considered to be active if the T/C value is above 130% (P<0.05), and toxic for a value lower than 70%.
(§8) In addition to the xenografted models of Example 6, the antitumoral activity of compound B was evaluated in orthotopic xenografted models PC3 (Prostate) and Capan2 (Pancreas).
Compound B was further evaluated on in vivo orthotopic Capan-2 pancreatic cancer model by measurement of T/C index, as described in Example 6 of the specification.

Series [3] concerns PC-3 orthotopic xenograft. Put plainly: Orthotopic refractory prostate cancer model. Type of series: in vivo, nude mice. Particulars: from 7th day post-graft. The protocol: as §7, §8
Compound B was evaluated in vivo on highly invasive orthotopic PC-3 refractory prostate cancer model by measurement of T/C index, as described in Example 6 of the specification.

As a reminder, the IC50 is the midpoint of a concentration-inhibition curve. What is called IC30 is the concentration needed for an effect of 30%.

Like-named read-outs stand apart in the source and are kept apart here. Some results are limits rather than exact numbers.

As to `CC1CC2(NC(=O)CS2)C2(O)OC3CC4(C=O)C(CCC5C4CCC4(C)C(C6=CC(=O)OC6)CCC54O)CC3OC2O1` (centres unmarked) [2″oxo-voruscharin, 2″ oxo-voruscharin], the IC50 is 1 to 5 nM in the series with Hs683 (Homo sapiens, Hs 683, Hs683, MTT, 72 hours of incubation, read-out: IC50 value); 170 nM in the series with Hs683 (Homo sapiens, Hs 683, Hs683, Table E, concentration used for flow cytometry, chosen in accordance with MTT results, read-out: IC50); over 10000 nM in the series with J82 (Homo sapiens, J82, MTT, 72 hours of incubation, read-out: IC50 value); 4100 nM in the series with J82 (Homo sapiens, J82, Table E, concentration used for flow cytometry, chosen in accordance with MTT results, read-out: IC50); 10 to 50 nM in the series on U-373 MG (Homo sapiens, U373 MG); 10 to 50 nM with HCT-15 (Homo sapiens, HCT-15, MTT, 72 hours of incubation, read-out: IC50 value). Besides, the IC50 in the series on HCT-15 (Homo sapiens, HCT-15, Table E, concentration used for flow cytometry, chosen in accordance with MTT results, read-out: IC50) was 12 nM; in the series with A549 (Homo sapiens) it was 10 to 50 nM; in the series with LoVo (Homo sapiens), 5 to 10 nM. The IC30 with Hs683 (Hs683, Table E, concentration which kills 30% of the cell population) amounted to 8.3 nM; with J82 (J82, Table E, concentration which kills 30% of the cell population) it was 1700 nM; in the series with HCT-15 (HCT-15, Table E, concentration which kills 30% of the cell population), 4.1 nM. Moreover, the MTD index in series [1] came to 20 mg/kg.
As for `CC1CC2(NC(=O)CS2)C2(O)OC3CC4(CO)C(CCC5C4CCC4(C)C(C6=CC(=O)OC6)CCC54O)CC3OC2O1` (centres unmarked) [Compound B], the IC50 is 1 nM in the series on Capan-2 (Pancreas); 5 to 10 nM with PC-3 (Prostate); 1000 to 5000 nM with Hs683 (Hs683, MTT, 72 hours of incubation, read-out: IC50 value); 5000 to 10000 nM in the series with J82 (J82, MTT, 72 hours of incubation, read-out: IC50 value); 10 to 50 nM in the series on U-373 MG; 10 to 50 nM with HCT-15 (HCT-15, MTT, 72 hours of incubation, read-out: IC50 value). Moreover, the results for the IC50 in the series with A549 and in the series with LoVo were 10 nM and 1 to 5 nM, respectively. The T/C value in [2] (i.p. DMT/4 (20 mg/kg), 3ix5w, from 21st day post-graft) is recorded as 129%; in [2] (i.p. DMT/8 (10 mg/kb), 5ix8w, from 14th day post-graft) it was 127%; in series [3] (i.p. DMT/4 (20 mg/kg), 5ix6w), 177%; in series [3] (per os DMT/2 (40 mg/kg), 5dx6w) it was 132%. Moreover, in series [1], the MTD index is listed as 80 mg/kg.
